# Results published in patent US20260355189A1, “SMALL MOLECULE INHIBITORS OF NEUTROPHIL EXOCYTOSIS AND INFLAMMATION” (THE SCRIPPS RESEARCH INSTITUTE, priority 2022, published 2026).
# How the values were obtained:
# [1] = tested on: human neutrophils (Gelatinase granule cargo MMP9); assay: Flow cytometry of gelatinase granule exocytosis (MMP9) in human neutrophils; format: cell-based; details: 1 hour, GM-CSF + fMLP
# Description: (§1) Human neutrophils were isolated from normal donor's blood by Ficoll density centrifugation, as described previously (23). Murine bone marrow-derived neutrophils were isolated using a Percoll gradient fractionation system as described (24). A three-layer Percoll gradient was used (52%, 64%, and 72%), and neutrophils were isolated from the 64-72% interface, washed, and used in the assays.
# (§2) Method: The up-regulation of granule membrane-associated neutrophil markers at the plasma membrane was analyzed by flow cytometry. In these studies, flow cytometry analysis was performed by resuspension of 1×10^6 human neutrophils in phenol red-free RPMI 1640 medium, treated with a 10 μM solution of Inhibitors C1, C2, C4, C5, and C6 and Nexinhib 20 (C20) or DMSO control for 1 hour, and stimulated with physiological agonists GM-CSF (10 ng/ml) for 30 min followed by the addition of fMLP (1 μM) to induce degranulation or left untreated at 37 °C (non-stimulated, NS). The reactions were stopped by transferring the samples to ice and immediately spinning down the cells to initiate blocking and staining. To analyze the plasma membrane expression of plasma membrane markers, the cells were blocked in ice-cold PBS containing 1% BSA and stained with phycoerythrin (PE)-, FITC-, or Alexa647-conjugated anti-human CD63, CD66b, MMP9, and CD11b antibodies that detect extracellular epitopes of these markers. The cells were then washed and fixed in 1% paraformaldehyde in PBS. Samples were analyzed using a NovoCyte flow cytometer, and the data were processed using FlowJo software.
# [2] = tested on: human neutrophils (secretory vesicle marker CD11b); assay: Flow cytometry of secretory vesicle mobilization (CD11b) in human neutrophils; format: cell-based; details: 10 μM, 1 hour; GM-CSF + fMLP; relative to DMSO; N=15 donors; FIG. 7
# Description: as §1, §2
# [3] = tested on: neutrophils that carry the NLRP3 A350V mutation; assay: Secretion by bone-marrow-derived neutrophils from Nlrp3 A350V (CAPS) mice; format: cell-based, mouse; details: 10 μM, 1 hour, LPS and fMLF
# Description: FIG. 8A-C. […] A, gelatinase (MMP9) granules; B, azurophilic granules (MPO, myeloperoxidase); C, CD63 (an endolysosomal marker). […] Subsequently, neutrophils were either stimulated with lipopolisacharide (LPS) and the chemotatctic peptide fMLF or left untreated. C20 (Nexinhib20 is used as control). Mean±SEM, n=3. In this and subsequent figures, p<0.05; **, p<0.01; ***, p<0.001; ****, p<0.0001, ANOVA.
# These compounds are now tested using neutrophils from a mouse model of Cryopyrin-Associated Periodic Syndrome (CAPS), a systemic inflammatory disease in humans, caused by gain-of-function mutations of the NOD-like receptor family member, cryopirin, also known as NLRP3 (J Cin Immunol 39, 277-286, doi:10.1007/s10875-019-00638-z (2019)). Heterozygous NLRP3 mutations lead to hyper-responsive NLRP3 inflammasome function characterized by increased caspase-1 (Casp1) activation and […], and is observed in patients and in animal models with NLRP3-gain-of-function mutations. […] Subsequently, neutrophils were either stimulated with LPS and the chemotatctic peptide fMLF or left untreated.
# wild-type neutrophils = assay: Secretion by wild-type neutrophils; format: cell-based
# LPS-challenged mice = assay: LPS-induced systemic inflammation (endotoxemia/sepsis), plasma cytokines; format: in vivo, mouse; details: for IL-10 levels: FIG. 10B
# Procedure: FIG. 10A-B. Treatment with compound NEIa-C6 inhibits pro-inflammatory cytokine production in a model of sepsis. We tested the ability of C6 to protect mice from LPS-induced systemic inflammation. In these experiments, mice (n=4 independent mice per group) receive NEIa-C6 (30 mg/Kg) or vehicle by a single i.p. injection and two hours later, the animals are challenged with a single i.p. injection of lipopolysaccharide (LPS, 8 mg/Kg) or PBS (vehicle for LPS). Four hours after LPS/PBS insult, blood is collected and cytokines are analyzed in plasma using multiplex technology.
# To test whether Nexinhibs, and in particular NEIa-C6, have additional protective properties in inflammation models relevant to human disease, independent of inflammasome activation, we tested the ability of C6 to protect mice from LPS-induced systemic inflammation. In these experiments, mice received NEIa-C6 (30 mg/Kg) or vehicle by a single i.p. injection and two hours later, the animals are challenged with a single i.p. injection of lipopolysaccharide (LPS, 8 mg/Kg), an important outer membrane component of gram-negative bacteria. In this model, endotoxemia insult induces the production of pro-inflammatory cytokines. To test the possible anti-inflammatory effect of NEIa-C6, we comparatively analyzed cytokine levels in plasma of LPS-insulted and control mice using multiplex technology.
# [4] = 30 mg/Kg i.p., LPS 8 mg/Kg, plasma, FIG. 10A
compound,measurement,setting,value
CCN(CC)CCNC(=O)/C(=C/c1cccc([N+](=O)[O-])c1)n1cncn1 [154 (C6)],Inhibition in MMP9 experiment (words; printed as CD66b up-regulation),"[1]; 10 μM, relative to DMSO, FIG. 6",marked inhibition of CD66b up-regulation
same,inhibition at 10 µM,"[1]; Homo sapiens, Neutrophil, N=12 donors, FIG. 6, read-out: % Inhibition of MMP9 up-regulation",54.4%
same,Release of CD11b+ vesicles / CD11b upregulation,[2],unaffected
same,Mobilization of azurophilic granules (MPO),[3]; FIG. 8,inhibit the mobilization
same,Mobilization of gelatinase granules (MMP9),[3]; FIG. 8,inhibit the mobilization of gelatinase granules (MMP9)
same,Neutrophil secretion (hyperactivation of secretion),"[3]; Nlrp3 A350V and wild type, FIG. 8A-C",inhibit the hyperactivation of secretion
same,Mobilization of CD63,"[3]; murine neutrophils, FIG. 8",significantly inhibited the mobilization of CD63
same,Inhibitory effect on wild-type neutrophils,wild-type neutrophils,selective inhibitory effect on wild-type neutrophils
same,Production of pro-inflammatory cytokines,"LPS-challenged mice; 30 mg/Kg i.p. 2 h before LPS 8 mg/Kg, plasma 4 h after LPS, FIG. 10A",inhibit the production of the indicated pro-inflammatory cytokines
same,GM-CSF production,LPS-challenged mice; [4],significantly decreases
same,IL-1β production,LPS-challenged mice; [4],significantly decreases
same,IL-17 levels,LPS-challenged mice; [4],decreased
same,MIP-2 levels,LPS-challenged mice; [4],decreased
same,TL-3 levels,LPS-challenged mice; [4],decreases
same,IL-10 levels,"LPS-challenged mice; 30 mg/Kg i.p., LPS 8 mg/Kg, plasma, listed as C6",increases the production of IL-10
same,IL-10 levels,"LPS-challenged mice; 30 mg/Kg i.p., LPS 8 mg/Kg, plasma, listed as NEIa-C6",increased the levels of IL-10
